Test results as given in patent US9580435B2, “Pyrrolo[2,3-D]pyrimidine derivatives as CB2 receptor agonists” (priority 2013, dated 2017).
Read-outs that look alike come from different tables or passages of the source.

Experiments:
[1] = target: T1, human CB1 receptors (Homo sapiens, UniProt P21554); assay: functional cAMP assay, CHO cells expressing human CB1 receptors; format: cell-based
T1 construct: expressed in transfected cells; host or cells: CHO cells
Method: (§1) CHO cells expressing human CB1 or CB2 receptors are seeded 17-24 hours prior to the experiment 50.000 cells per well in a black 96 well plate with flat clear bottom (Corning Costar #3904) in DMEM (Invitrogen No. 31331), lx HT supplement, with 10% fetal calf serum and incubated at 5% CO2 and 37° C. in a humidified incubator. The growth medium was exchanged with Krebs Ringer Bicarbonate buffer with 1 mM IBMX and incubated at 30° C. for 30 min. Compounds were added to a final assay volume of 100 μl and incubated for 30 min at 30° C. Using the cAMP-Nano-TRF detection kit the assay (Roche Diagnostics) was stopped by the addition of 50 μl lysis reagent (Tris, NaCl, 1.5% Triton X100, 2.5% NP40, 10% NaN3) and 50 μl detection solutions (20 μM mAb Alexa700-cAMP 1:1, and 48 μM Ruthenium-2-AHA-cAMP) and shaken for 2 h at room temperature. The time-resolved energy transfer is measured by a TRF reader (Evotec Technologies GmbH), equipped with a ND:YAG laser as excitation source. The plate is measured twice with the excitation at 355 nm and at the emission with a delay of 100 ns and a gate of 100 ns, total exposure time 10 s at 730 (bandwidth 30 nm) or 645 nm (bandwidth 75 nm), respectively. The FRET signal is calculated as follows: FRET=T730-Alexa730-P(T645-B645) with P=Ru730-B730/Ru645-B645, where T730 is the test well measured at 730 nM, T645 is the test well measured at 645 nm, B730 and B645 are the buffer controls at 730 nm and 645 nm, respectively. cAMP content is determined from the function of a standard curve spanning from 10 μM to 0.13 nM cAMP.
(§2) EC50 values were determined using Activity Base analysis (ID Business Solution, Limited). The EC50 values for a wide range of cannabinoid agonists generated from this assay were in agreement with the values published in the scientific literature.

[2] = target: T2, human CB2 receptors (Homo sapiens, UniProt P34972); assay: functional cAMP assay, CHO cells expressing human CB2 receptors; format: cell-based
T2 construct: expressed in transfected cells; host or cells: CHO cells
T2 sequence (P34972 whole entry): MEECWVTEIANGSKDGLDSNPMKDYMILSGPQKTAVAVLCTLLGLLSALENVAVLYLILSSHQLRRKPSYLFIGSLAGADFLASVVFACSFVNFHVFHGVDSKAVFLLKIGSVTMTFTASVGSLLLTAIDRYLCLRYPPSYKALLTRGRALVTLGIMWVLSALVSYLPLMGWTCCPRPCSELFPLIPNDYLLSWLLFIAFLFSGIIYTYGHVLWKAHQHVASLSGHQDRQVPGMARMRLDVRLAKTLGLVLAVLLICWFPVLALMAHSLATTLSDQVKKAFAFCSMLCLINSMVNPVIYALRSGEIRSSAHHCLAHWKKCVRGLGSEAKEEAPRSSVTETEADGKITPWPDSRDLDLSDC
Method: as §1, §2

[3] = human EC50, functional cAMP assay, CHO cells expressing human CB2, read-out: EC50:CB2

T1 sequence (P21554 whole entry): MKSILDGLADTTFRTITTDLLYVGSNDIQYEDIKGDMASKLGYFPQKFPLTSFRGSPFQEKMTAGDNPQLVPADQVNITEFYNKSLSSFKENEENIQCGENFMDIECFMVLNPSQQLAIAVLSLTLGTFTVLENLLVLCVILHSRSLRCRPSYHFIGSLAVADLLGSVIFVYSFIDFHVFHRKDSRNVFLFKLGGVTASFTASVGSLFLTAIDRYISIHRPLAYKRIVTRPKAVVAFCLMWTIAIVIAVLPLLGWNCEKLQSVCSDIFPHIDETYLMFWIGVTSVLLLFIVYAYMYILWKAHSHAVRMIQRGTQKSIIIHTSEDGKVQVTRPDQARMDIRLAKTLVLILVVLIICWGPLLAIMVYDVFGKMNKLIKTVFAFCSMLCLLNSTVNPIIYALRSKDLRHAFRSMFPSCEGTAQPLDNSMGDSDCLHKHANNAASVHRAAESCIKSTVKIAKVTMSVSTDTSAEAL

Structure (SMILES) | EC50 [1] [µM] | EC50 [2] [nM] | EC50 [2, 3] [nM]
CC(C)(C)c1nc(N2CCC(O)C2)c2ccn(Cc3ncccc3Cl)c2n1 (stereo not drawn) [Example 30, 1-[2-tert-butyl-7-[(3-chloropyridin-2-yl)methyl]pyrrolo[2,3-d]pyrimidin-4-yl]pyrrolidin-3-ol] | > 10 | 8.4 | –
Cc1noc(Cn2ccc3c(N4CCC(O)C4)nc(C(C)(C)C)nc32)n1 (stereo not drawn) [Example 31, 1-[2-tert-butyl-7-[(3-methyl-1,2,4-oxadiazol-5-yl)methyl]pyrrolo[2,3-d]pyrimidin-4-yl]pyrrolidin-3-ol] | > 10 | – | 316
Cc1nonc1Cn1ccc2c(N3CCC(O)C3)nc(C(C)(C)C)nc21 (stereo not drawn) [Example 32, 1-[2-tert-butyl-7-[(4-methyl-1,2,5-oxadiazol-3-yl)methyl]pyrrolo[2,3-d]pyrimidin-4-yl]pyrrolidin-3-ol] | > 10 | 18.9 | –
Cc1nnc(Cn2ccc3c(N4CCC(O)C4)nc(C(C)(C)C)nc32)o1 (stereo not drawn) [Example 33, 1-[2-tert-butyl-7-[(5-methyl-1,3,4-oxadiazol-2-yl)methyl]pyrrolo[2,3-d]pyrimidin-4-yl]pyrrolidin-3-ol] | > 10 | – | 350
Cn1nnnc1Cn1ccc2c(N3CCC(O)C3)nc(C(C)(C)C)nc21 (stereo not drawn) [Example 34, 1-[2-tert-butyl-7-[(1-methyltetrazol-5-yl)methyl]pyrrolo[2,3-d]pyrimidin-4-yl]pyrrolidin-3-ol] | > 10 | – | 134
CC(=O)OC1CCN(c2nc(C(C)(C)C)nc3c2ccn3Cc2nnnn2C)C1 (stereo not drawn) [Example 35, [1-[2-tert-butyl-7-[(1-methyltetrazol-5-yl)methyl]pyrrolo[2,3-d]pyrimidin-4-yl]pyrrolidin-3-yl]acetate] | > 10 | – | 278
CC(=O)OC1CCN(c2nc(C(C)(C)C)nc3c2ccn3Cc2cccc(Cl)c2Cl)C1 (stereo not drawn) [Example 36, [1-[2-tert-butyl-7-[(2,3-dichlorophenyl)methyl]pyrrolo[2,3-d]pyrimidin-4-yl]pyrrolidin-3-yl]acetate] | > 10 | 85.3 | –
CC(=O)OC1CCN(c2nc(C(C)(C)C)nc3c2ccn3Cc2nonc2C)C1 (stereo not drawn) [Example 37, [1-[2-tert-butyl-7-[(4-methyl-1,2,5-oxadiazol-3-yl)methyl]pyrrolo[2,3-d]pyrimidin-4-yl]pyrrolidin-3-yl]acetate] | > 10 | 88.7 | –
CC(C)(C)c1nc(N2CCC(O)C2)c2ccn(Cc3nnnn3C3CC3)c2n1 (stereo not drawn) [Example 38, 1-[2-tert-butyl-7-[(1-cyclopropyltetrazol-5-yl)methyl]pyrrolo[2,3-d]pyrimidin-4-yl]pyrrolidin-3-ol] | > 10 | – | 173
CC(C)(C)c1nc(N2CCC(O)C2)c2ccn([C@@H]3CCOC3)c2n1 (stereo partly drawn) [Example 39, 1-[2-tert-butyl-7-[(3R)-oxolan-3-yl]pyrrolo[2,3-d]pyrimidin-4-yl]pyrrolidin-3-ol] | > 10 | 35 | –
CC(C)(C)c1nc(N2CCC(O)C2)c2ccn(Cc3c[nH]nc3C(F)(F)F)c2n1 (stereo not drawn) [Example 40, 1-[2-tert-butyl-7-[[3-(trifluoromethyl)-1H-pyrazol-4-yl]methyl]pyrrolo[2,3-d]pyrimidin-4-yl]pyrrolidin-3-ol] | > 10 | 35.6 | –
CC(C)(C)c1nc(N2CCC(F)(F)C2)c2ccn(Cc3c[nH]nc3C(F)(F)F)c2n1 [Example 41, 2-tert-butyl-4-(3,3-difluoropyrrolidin-1-yl)-7-[[3-(trifluoromethyl)-1H-pyrazol-4-yl]methyl]pyrrolo[2,3-d]pyrimidine] | 1.84 | 13.5 | –
CC(C)(C)c1nc(N2CC[C@H](O)C2)c2ccn(Cc3cccc(Cl)c3Cl)c2n1 [Example 42, (3S)-1-[2-tert-butyl-7-[(2,3-dichlorophenyl)methyl]pyrrolo[2,3-d]pyrimidin-4-yl]pyrrolidin-3-ol] | > 10 | 3.5 | –
CC(C)(C)c1nc(N2CC[C@H](O)C2)c2ccn(Cc3ccc(F)cc3Cl)c2n1 [Example 43, (3S)-1-[2-tert-butyl-7-[(2-chloro-4-fluorophenyl)methyl]pyrrolo[2,3-d]pyrimidin-4-yl]pyrrolidin-3-ol] | > 10 | 6.3 | –
CC(C)(C)c1nc(N2CC[C@H](O)C2)c2ccn(Cc3ccccc3C(F)(F)F)c2n1 [Example 44, (3S)-1-[2-tert-butyl-7-[[2-(trifluoromethyl)phenyl]methyl]pyrrolo[2,3-d]pyrimidin-4-yl]pyrrolidin-3-ol] | > 10 | 3.3 | –
CC(C)(C)c1nc(N2CC[C@H](O)C2)c2ccn(Cc3ccccc3S(C)(=O)=O)c2n1 [Example 45, (3S)-1-[2-tert-butyl-7-[(2-methylsulfonylphenyl)methyl]pyrrolo[2,3-d]pyrimidin-4-yl]pyrrolidin-3-ol] | > 10 | 4.2 | –
CC(C)(C)c1nc(N2CC[C@H](O)C2)c2ccn(Cc3cccnc3Cl)c2n1 [Example 46, (3S)-1-[2-tert-butyl-7-[(2-chloropyridin-3-yl)methyl]pyrrolo[2,3-d]pyrimidin-4-yl]pyrrolidin-3-ol] | > 10 | 5.1 | –
CC(C)(C)c1nc(N2CC[C@H](O)C2)c2ccn(Cc3ncccc3Cl)c2n1 [Example 47, (3S)-1-[2-tert-butyl-7-[(3-chloropyridin-2-yl)methyl]pyrrolo[2,3-d]pyrimidin-4-yl]pyrrolidin-3-ol] | > 10 | 5.8 | –
Cc1nonc1Cn1ccc2c(N3CC[C@H](O)C3)nc(C(C)(C)C)nc21 [Example 48, (3S)-1-[2-tert-butyl-7-[(4-methyl-1,2,5-oxadiazol-3-yl)methyl]pyrrolo[2,3-d]pyrimidin-4-yl]pyrrolidin-3-ol] | > 10 | 8.5 | –
CC(C)(C)c1nc(N2CC3(COC3)C2)c2ccn(Cc3ncccc3Cl)c2n1 [Example 49, 6-[2-tert-butyl-7-[(3-chloropyridin-2-yl)methyl]pyrrolo[2,3-d]pyrimidin-4-yl]-2-oxa-6-azaspiro[3.3]heptane] | 0.307 | 10.7 | –
Cn1nnnc1Cn1ccc2c(N3CC4(COC4)C3)nc(C(C)(C)C)nc21 [Example 50, 6-[2-tert-butyl-7-[(1-methyltetrazol-5-yl)methyl]pyrrolo[2,3-d]pyrimidin-4-yl]-2-oxa-6-azaspiro[3.3]heptane] | > 10 | – | 531
